Here are results for four compounds from ChEMBL document CHEMBL1201862, “PubChem BioAssay data set” (2004).

Active and inactive are the calls of the source. Some results are limits rather than exact numbers.

Experiment [1] has as its target T1, Apoptotic protease-activating factor 1 (Homo sapiens, UniProt O14727).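 Also: caspase-3 cleavage of fluorogenic Rh110 DEVD substrate downstream of apoptosome activation.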
T1 sequence (O14727 whole entry): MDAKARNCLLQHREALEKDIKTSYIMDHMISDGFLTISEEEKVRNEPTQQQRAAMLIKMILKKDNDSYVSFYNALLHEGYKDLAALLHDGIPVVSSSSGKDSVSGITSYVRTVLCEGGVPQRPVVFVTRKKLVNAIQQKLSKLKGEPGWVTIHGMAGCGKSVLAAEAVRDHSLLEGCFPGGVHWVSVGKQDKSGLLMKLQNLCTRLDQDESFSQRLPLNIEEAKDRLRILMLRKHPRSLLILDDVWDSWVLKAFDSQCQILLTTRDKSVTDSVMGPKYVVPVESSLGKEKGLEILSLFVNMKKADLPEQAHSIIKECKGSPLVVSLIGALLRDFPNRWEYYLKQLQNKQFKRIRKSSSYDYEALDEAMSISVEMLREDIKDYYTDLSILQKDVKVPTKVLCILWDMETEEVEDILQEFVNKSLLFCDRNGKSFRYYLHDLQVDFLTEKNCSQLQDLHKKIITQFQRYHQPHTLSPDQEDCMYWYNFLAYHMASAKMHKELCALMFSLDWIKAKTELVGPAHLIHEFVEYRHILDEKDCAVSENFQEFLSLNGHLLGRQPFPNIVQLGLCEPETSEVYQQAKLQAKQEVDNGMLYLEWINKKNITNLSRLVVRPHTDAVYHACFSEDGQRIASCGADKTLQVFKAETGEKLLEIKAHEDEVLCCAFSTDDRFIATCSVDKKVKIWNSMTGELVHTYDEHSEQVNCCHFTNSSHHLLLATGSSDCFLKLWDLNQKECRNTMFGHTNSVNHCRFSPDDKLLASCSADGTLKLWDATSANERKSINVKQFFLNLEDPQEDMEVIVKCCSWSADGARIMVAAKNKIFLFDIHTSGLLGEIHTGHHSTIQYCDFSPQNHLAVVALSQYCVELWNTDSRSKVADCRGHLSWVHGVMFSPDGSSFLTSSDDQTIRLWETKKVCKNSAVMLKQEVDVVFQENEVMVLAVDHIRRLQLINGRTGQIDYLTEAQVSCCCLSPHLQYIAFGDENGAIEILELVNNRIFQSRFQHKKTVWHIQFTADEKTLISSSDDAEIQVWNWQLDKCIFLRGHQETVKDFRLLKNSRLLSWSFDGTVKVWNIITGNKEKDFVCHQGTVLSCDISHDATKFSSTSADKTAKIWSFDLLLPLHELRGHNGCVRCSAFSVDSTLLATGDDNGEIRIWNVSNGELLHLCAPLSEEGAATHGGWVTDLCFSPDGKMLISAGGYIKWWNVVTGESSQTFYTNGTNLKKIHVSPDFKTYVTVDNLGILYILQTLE
In words: SAR analysis of small molecule Activators of Apaf-1 in a Fluorescent assay. The format is functional. The conditions noted are these: read-out: EC50_Mean.

The target in experiment [2] is T2, Probable nicotinate-nucleotide adenylyltransferase (Staphylococcus aureus (strain N315), UniProt P65502). The format is functional, Staphylococcus aureus subsp. aureus N315.
T2 sequence (P65502 whole entry): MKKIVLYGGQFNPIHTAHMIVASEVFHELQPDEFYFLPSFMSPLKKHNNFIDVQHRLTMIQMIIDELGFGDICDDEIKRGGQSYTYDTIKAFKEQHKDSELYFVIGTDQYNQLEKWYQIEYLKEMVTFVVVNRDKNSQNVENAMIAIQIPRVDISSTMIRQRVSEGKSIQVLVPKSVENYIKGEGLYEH
In experiment [3] the target is T2, Probable nicotinate-nucleotide adenylyltransferase. It counts as functional, Staphylococcus aureus subsp. aureus N315. The conditions noted are these: read-out: IC50_Mean.
Experiment [4] is described as follows: NIH3T3 cell viability loss – ATP luminescence, mouse fibroblasts, counter-screen, dose response (AID 2010).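 Also: cells exposed to compound for about 90 hours before reading.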 The format is functional, cell-based.
The nature of experiment [5]: viability of HCT116 lacking mutant beta-catenin – cell-based, human colon tumor, dose response (AID 1045).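 Also: HCT116 colon tumor cells with beta catenin knocked out; cells exposed to compound for 60 hours.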 The format is functional.
The nature of experiment [6]: Trypanosoma cruzi growth suppression in host cells – NIH3T3 host cells, beta-gal luminescence, confirmation (AID 2044).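 Also: intracellular parasites grown in NIH/3T3 mouse fibroblasts as host cells; luminescent beta-galactosidase reporter signal from transgenic T. cruzi replicating inside host cells; inhibitors lower the luminescence signal.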 The format is functional, cell-based.
Experiment [7] has as its target FAD-linked sulfhydryl oxidase ALR (Homo sapiens, UniProt P55789). In words: ALR-catalysed DTT oxidation blockers – biochemical, H2O2 detection, luminescence, cherry-pick, dose response (AID 493248).
In another experiment the test system is Vero. In words: cells. It counts as functional. The note with it: Chlorocebus sabaeus.
In experiment [8] the target is T3, Mitochondrial peptide methionine sulfoxide reductase (Bos taurus, UniProt P54149).
T3 sequence (P54149 whole entry): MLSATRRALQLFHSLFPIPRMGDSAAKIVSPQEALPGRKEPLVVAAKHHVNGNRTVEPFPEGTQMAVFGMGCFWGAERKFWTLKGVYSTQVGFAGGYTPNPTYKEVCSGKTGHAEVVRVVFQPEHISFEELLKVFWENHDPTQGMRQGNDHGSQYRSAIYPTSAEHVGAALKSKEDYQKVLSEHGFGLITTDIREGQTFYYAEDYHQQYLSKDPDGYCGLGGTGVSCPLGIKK
Description: Absorbance-based biochemical high throughput dose response assay for activators of Methionine sulfoxide reductase A (MsrA). The format is functional.

Experiment [9] deals with Glucose-6-phosphate 1-dehydrogenase (Homo sapiens, UniProt P11413). In words: inhibition of Homo sapiens G6PD, dose series – biochemical, fluorescence, selectivity assay for P. falciparum G6PD inhibitor project, dose response (AID 504792). The format is functional.
Sequence of Glucose-6-phosphate 1-dehydrogenase (P11413 whole entry): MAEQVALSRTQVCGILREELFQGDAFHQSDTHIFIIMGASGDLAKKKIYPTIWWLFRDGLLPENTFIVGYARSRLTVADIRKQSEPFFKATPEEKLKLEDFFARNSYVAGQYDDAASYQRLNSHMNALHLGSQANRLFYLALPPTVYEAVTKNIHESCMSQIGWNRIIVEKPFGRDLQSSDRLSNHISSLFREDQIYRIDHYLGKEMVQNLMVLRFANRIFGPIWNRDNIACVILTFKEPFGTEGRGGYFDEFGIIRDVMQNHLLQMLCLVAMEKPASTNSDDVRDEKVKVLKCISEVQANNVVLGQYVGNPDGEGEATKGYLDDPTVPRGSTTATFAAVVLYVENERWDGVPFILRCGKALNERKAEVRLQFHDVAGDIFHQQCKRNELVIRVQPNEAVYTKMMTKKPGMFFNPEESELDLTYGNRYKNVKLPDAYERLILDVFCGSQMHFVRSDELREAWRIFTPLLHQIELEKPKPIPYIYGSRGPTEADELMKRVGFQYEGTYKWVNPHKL
The nature of experiment [10]: viability of PTEN-deleted HCT116 cells – cell-based, HCT116 PTEN knockout, dose response (AID 1047).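 Also: HCT116 colon tumor cells with PTEN knocked out; cells exposed to compound for 60 hours before readout; potency for loss of cell viability measured by luminescence.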 The format is functional.
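For IC50 Mean in this document: confirmatory dose-response retesting of NadD inhibitor hits first found in an ultra-high-throughput screen.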

Sequence of FAD-linked sulfhydryl oxidase ALR (P55789 whole entry): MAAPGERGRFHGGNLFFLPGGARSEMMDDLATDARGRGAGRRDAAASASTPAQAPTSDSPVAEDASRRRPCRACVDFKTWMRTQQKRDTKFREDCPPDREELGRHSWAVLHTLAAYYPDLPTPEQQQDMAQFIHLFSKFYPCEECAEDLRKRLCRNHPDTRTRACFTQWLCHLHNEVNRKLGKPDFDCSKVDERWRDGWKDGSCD

Turning to `Cc1cccc(C)c1N1C(=O)CC2(CC(c3ccc(F)cc3)=NO2)C1=O` (configuration not stated), in experiment [1], the EC50 was > 100 µM (inactive).

Regarding `COc1cc(NCC(C)C(=O)O)cc(OC)c1OC` (configuration not stated), the EC50 in experiment [1] is > 100 µM (inactive).

As to `CCn1cc(/C=N/NC(=O)c2cc3c(ccc4ccccc43)o2)c2ccccc21`, the IC50 is 40.7 µM (active) in experiment [2] and 80 µM (inactive) in experiment [3].

As to `O=c1ccsn1Cc1ccccc1`, the EC50 in [4] is 37.5 µM (active); in experiment [5], 12.5 µM (active); in [6], 1.1 µM (active); in experiment [8] it was > 104 µM (inactive); in [10] it was 13 µM (active). Moreover, the AC50 (commonly the concentration giving half of the maximal activity seen) in experiment [7] was < 0.005 µM (active). The CC50 (commonly the concentration giving 50% cytotoxicity) in the experiment with Vero is > 25 µM (active). Moreover, in [9], the IC50 is 75.6 µM (inactive).
